One experiment relates to SrrB'. The experiment can be described thus: Inhibition of SrrB' autophosphorylation (Kinase-Glo). In kind it is biochemical, S. epidermidis. As to conditions: compound 50 μM, 4 μg protein, 3 μM ATP. For orientation: Kinase-Glo reads ATP consumption through a luciferase reaction.
Experiment [1] concerns S. epidermidis ATCC12228. The experiment can be described thus: Minimal bactericidal concentration (MBC) assay. The format is cell-based. Conditions: Staphylococcus epidermidis. As for the experimental part: (§1) MIC assays for the antibacterial activities of the compounds were performed according to the broth micro-dilution (in tubes) method of the Clinical and Laboratory Standards Institute (CLSI) of America. The Minimal Bactericidal Concentration (MBC) was obtained by subculturing 100 μl from each negative (no visible bacterial growth) tube from the MIC assay, onto substance-free Mueller-Hinton agar plates. The plates were incubated at 37°C for 24 hours, and the MBC was defined as the lowest concentration of substance which produced subcultures growing no more than five colonies on each plate.

In a further experiment the test system is S. epidermidis RP62A. The experiment can be described thus: Minimal bactericidal concentration (MBC) assay. The format is cell-based. As to conditions: Staphylococcus epidermidis; S. epidermidis RP62A; read-out: Minimal bactericidal concentration (MBC). How it is done:
as §1

The target of the next experiment is T1, YycG' protein (Staphylococcus epidermidis, UniProt Q8CU87).
T1 construct: of YycG (370aa to 610aa) was amplified by PCR; His-tag (pET28a) (N); made in house; host or cells: E. coli BL21 (pET28a, pETYycG')
T1 sequence (Q8CU87 370-610): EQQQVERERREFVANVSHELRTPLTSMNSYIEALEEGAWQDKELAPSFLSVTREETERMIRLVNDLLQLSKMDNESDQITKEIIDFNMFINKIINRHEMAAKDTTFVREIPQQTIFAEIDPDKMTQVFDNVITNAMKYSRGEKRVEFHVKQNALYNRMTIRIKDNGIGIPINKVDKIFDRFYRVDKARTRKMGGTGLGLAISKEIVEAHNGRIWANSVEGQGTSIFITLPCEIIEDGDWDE
Kind of experiment: Compound-YycG' protein binding assay (SPR, Biacore 3000). Conditions: SPR sensorgram shape. The text has this: The YycG' fragment containing the cytoplasmic signal domains (the HATPase_c and HisKA domain, see Figure 1A) of YycG (370aa to 610aa) was amplified by PCR (with the chromosomal DNA of S. epidermidis ATCC12228 as the template, and (5' […] 3') and (5' […] 3') as the primers. Subsequently, the fragment was digested with BamHI and XholI (TAKARA, Japan) and ligated into the corresponding sites of pET28a (Promega, Madison, USA) to obtain pETYycG'. The expressed YycG' protein was purified with the ProBond™ Purification System (Invitrogen, California, USA), according to the manufacturer's protocol.
The in vitro binding affinities of the inhibitor compounds to the YycG' protein was determined using surface plasmon resonance (SPR) biosensor technology on the dual flow cell Biacore 3000 instrument (Biacore AB, Uppsala, Sweden) with a similar method as described in our previous study. Immobilization of the YycG' protein to the hydrophilic carboxymethylated dextran matrix of the sensor chip CM5 (Biacore) was carried out by the standard primary amine coupling reaction. […] The equilibrium constants (KD) evaluating the protein-ligand binding affinity were determined by the steady state or the kinetic state affinity fitting model encoded in the Biacore analysis software.
For orientation: SPR reads the build-up and loss of mass on a sensor chip optically.

For another experiment, the system named is S. pyogenes 144. Kind of experiment: MIC assay (broth dilution in tubes, CLSI). In kind it is cell-based, Streptococcus pyogenes. Conditions: Streptococcus pyogenes; S. pyogenes 144; read-out: Minimal inhibitory concentration (MIC).
Text: (§2) Staphylococcus epidermidis ATCC12228 and RP62A strains were purchased from the American Type Culture Collection (ATCC, Manassas, USA). Staphylococcus aureus ATCC29213, Escherichia coli ATCC25922 and Pseudomonas aeruginosa ATCC27853 were kindly provided by Dr. Bijie Hu at Zhongshan Hospital (Shanghai, China). S. epidermidis strains se527, se886, se847, seG203, Streptococcus pyogenes strain 144, and Streptococcus mutans strain 128 were all clinical isolates from Zhongshan Hospital and Huashan Hospital (Shanghai, China). If not stated otherwise, S. epidermidis and S. aureus strains were grown at 37°C in tryptic soy broth (TSB, Oxoid) containing 0.25% glucose, E. coli and P. aeruginosa strains were grown at 37°C in Luria-Bertani (LB, Oxoid).
as §1
On the technique in general: Dilution methods test growth across graded concentrations, often in twofold steps.

The next experiment deals with S. mutans 128. Kind of experiment: MIC assay (broth dilution in tubes, CLSI). In kind it is cell-based, Streptococcus mutans. Conditions: Streptococcus mutans; S. mutans 128; read-out: Minimal inhibitory concentration (MIC).
Text: as §2, §1

Experiment [2] relates to S. epidermidis ATCC12228. The experiment can be described thus: MIC assay (broth dilution in tubes, CLSI). In kind it is cell-based, Staphylococcus epidermidis. Conditions: for MIC: Staphylococcus epidermidis.
Text: as §2, §1

The text below walks through data of publication PMC1660542, “Structure-based discovery of inhibitors of the YycG histidine kinase: New chemical leads to combat Staphylococcus epidermidis infections” (BMC Microbiology, 2006).

Molecules are shown by their SMILES. ≈ marks a conversion by molar mass, not a printed value. Like-named read-outs stand apart in the source and are kept apart here.

As to `Cc1ccc(NC(=O)CN2C(=O)S/C(=C\c3ccc(OCc4cccc(C(O)O)c4)cc3)C2=O)cc1` [Compound 7], the “Inhibition of SrrB' phosphorylation” value in the experiment on SrrB' was 2%. The MBC in the experiment on S. epidermidis ATCC12228 [1] and in the experiment on S. epidermidis RP62A was greater than 400 µM in each case. Besides, at YycG' protein, the “Association/dissociation pattern in SPR” value was “slow association and slow dissociation”. The MIC with S. pyogenes 144 is greater than 200 µM; in the experiment with S. mutans 128, greater than 200 µM; in the experiment on S. epidermidis ATCC12228 [2] (ATCC12228, Table 2, as tested on S. epidermidis ATCC 12228, read-out: MICs), 0.2 µM (≈ 0.101 µg/mL); in the experiment on S. epidermidis ATCC12228 [2] (S. epidermidis ATCC12228 (non-biofilm-forming strain), read-out: Minimal inhibitory concentration (MIC)), 0.2 µM (≈ 0.101 µg/mL). In the experiment on S. epidermidis ATCC12228 [2] (ATCC12228 versus RP62A), the “Antibacterial effectiveness” value was “only effective against the non-biofilm-forming strain ATCC12228”.
